Data: patent publication US20230292776A1, “GAS PHASE TREATMENT OF PRODUCE” (priority 2022, published 2023)

Columns and labels:
[1] = test system: Penicillium italicum (Pi); assay: Antifungal activity of vapor against Penicillium italicum (Pi) in wounded, infected mandarins; assay type: in vivo
Protocol: Example 2. The antifungal activity of allyl isothiocyanate (AITC) and DADS vapor was tested against Pd and Penicillium italicum (Pi) in mandarins. All samples were wounded by puncturing with a screw. Mandarins were infected by dispensing either 1000 Pd spores or 1000 Pi spores suspended in 10 μL into the wound. The test groups consisted of mandarins that were: uninfected and untreated; uninfected and treated by dipping in a solution of 1 g/L of imazalil; infected with Pd and untreated; infected with Pd and exposed to AITC; infected with Pd and exposed to DADS; infected with Pi and untreated; infected with Pi and exposed to AITC; and infected with Pi and exposed to DADS. Exposure to AITC or DADS consisted of exposing the mandarins for 72 hours to the vapor of 3 mL of the respective compound dispensed in a Petri dish. […] DADS vapor reduced the incidence of Pd mold by 85% and Pi mold by 30% compared to the respective untreated/infected test groups. […] Both AITC and DADS were effective at preventing fungal growth. The inhibition from AITC was approximately 100%, with some changes in visible appearance.

[2] = test system: Colletotrichum gloeosporioides (Cg); assay: Antifungal activity against Colletotrichum gloeosporioides (Cg) in wounded, infected avocados; assay type: in vivo; conditions: for reduction of the incidence of Cg mold compared to the untreated test group: vapor of 3 mL in a Petri dish; for incidence of Cg mold: day 5
Protocol: Example 7. The antifungal activity of AITC and DADS vapor against Colletotrichum gloeosporioides (Cg) was tested in avocados. All test pieces were wounded by removing the stem and infected by dispensing 1000 Cg spores suspended in 10 μL of water into the wound. The test groups consisted of avocados that were: untreated and uninfected; untreated and infected; treated by dipping in a solution of 0.1 g/L of prochloraz; exposed to the vapor of 3 mL of AITC disposed in a Petri dish; and exposed to the vapor of 3 mL of DADS disposed in a Petri dish. FIG. 9 quantifies the infection results. AITC vapor reduced the incidence of Cg mold by 97% compared to the untreated test group and 70% compared to the prochloraz treated test group. DADS vapor reduced the incidence of Cg mold by 60% compared to the untreated test group.
Example 8. The antifungal activity of a range of DADS vapor exposure times was tested against Cg in avocados. All test pieces were wounded by removing the stem and infected by dispensing 1000 Cg spores suspended in 10 μL of water into the wound. The test groups consisted of avocados that were: infected and untreated; and exposed to the vapor of 3 mL of DADS in a Petri dish for 24 hours, 48 hours, and 72 hours. FIG. 10 quantifies the infection results. Test group exposed to DADS vapor at all exposure times reduced the incidence of Cg mold compared to the untreated test group. A 24 hour DADS exposure reduced the incidence of Cg mold by 8%. A 48 hour DADS exposure reduced the incidence of Cg mold by 25%. A 72 hour DADS exposure reduced the incidence of Cg mold by 57%.
Example 9. The antifungal activity of a range of AITC and carvacrol vapor exposure times was tested against Cg in avocados. To measure the effect of the various treatments on ripening, durometer shore was taken after 7 days of incubation at ambient temperature and high humidity. All samples were wounded by removing the stem and infected by dispensing 1000 Cg spores suspended in 10 μL of water in the wound. The test groups consisted of avocados that were: infected and left untreated on the benchtop; infected and left untreated under a fume hood; exposed to the vapor of 3 mL of AITC in a Petri dish for 24 hours, 48 hours, and 72 hours; and exposed to the vapor of 3 mL of carvacrol in a Petri dish for 72 hours. FIG. 11 quantifies the infection results. […] All exposure times to AITC vapor reduced the incidence of Cg mold compared to the untreated samples. A 24 hour AITC exposure reduced the incidence of Cg mold by 90%. A 48 hour AITC exposure reduced the incidence of Cg mold by 97%. A 72 hour AITC exposure reduced the incidence of Cg mold by 83%.
Example 10. The antifungal activity of a range of AITC vapor exposure times were tested against Cg in avocados. To measure the effect of the various treatments on ripening, durometer shore was taken after 6 days of incubation at ambient temperature and high humidity. All samples were wounded by removing the stem and infected by dispensing 1000 Cg spores suspended in 10 μL of water in each wound. The test groups consisted of avocados that were: infected and left untreated on the benchtop; infected and left untreated in a fume hood; exposed to the vapor of 3 mL of AITC in a Petri dish for 24 hours, 48 hours, and 72 hours. FIG. 13 quantifies the infection results. […] All exposure times to AITC vapor reduced the incidence of Cg mold compared to the untreated samples.
Example 21. The antifungal activity of avocados exposed to AITC vapor and prochloraz was tested against Cg in avocados. To measure the effect of the various treatments on ripening, durometer shore was taken after 5 days of incubation at ambient temperature (about 20° C. to about 25° C.) and high humidity (about 88% relative humidity to about 93% relative humidity). All samples were wounded by removing the stem and infected by dispensing 1000 Cg spores suspended in 10 μL of water in the wound. […]

SMILES: C=CCN=C=S [AITC, allyl isothiocyanate]
- inhibition of fungal growth (Pi) ([1]; Example 2, 72 hours vapor of 3 mL): approximately 100%
- reduction of the incidence of Cg mold compared to the untreated test group ([2]; Example 7, avocados): 97%
- reduction of the incidence of Cg mold compared to the prochloraz treated test group ([2]; Example 7, avocados, vapor of 3 mL, prochloraz 0.1 g/L dip): 70%
- reduction of the incidence of Cg mold ([2]; Example 9, avocados, vapor of 3 mL, 24 hour exposure): 90%
- reduction of the incidence of Cg mold ([2]; Example 9, avocados, vapor of 3 mL, 48 hour exposure): 97%
- reduction of the incidence of Cg mold ([2]; Example 9, avocados, vapor of 3 mL, 72 hour exposure): 83%
- reduction of the incidence of Cg mold ([2]; Example 10, avocados, vapor of 3 mL, 24 hour exposure): 81.5%
- reduction of the incidence of Cg mold ([2]; Example 10, avocados, vapor of 3 mL, 48 hour exposure): 93.5%
- reduction of the incidence of Cg mold ([2]; Example 10, avocados, vapor of 3 mL, 72 hour exposure): 86.5%
- incidence of Cg mold ([2]; Example 21, 125 μL, 30 minutes): reduced the incidence of Cg mold compared to the untreated samples and the prochloraz treated sample
- reduction of the incidence of Cg mold ([2]; Example 21, printed as 24 hour exposure): 90%
- incidence of Cg mold ([2]; Example 22, AITC vapor 30 minutes): reduced the incidence of Cg mold compared to the untreated samples, the samples treated with coating agent, and the prochloraz treated sample

SMILES: C=CCSSCC=C [DADS, diallyl disulfide]
- reduction of the incidence of Pi mold compared to untreated/infected test group ([1]; Example 2, 72 hours vapor of 3 mL in a Petri dish): 30%
- reduction of the incidence of Cg mold compared to the untreated test group ([2]; Example 7, avocados): 60%
- reduction of the incidence of Cg mold ([2]; Example 8, avocados, vapor of 3 mL, 24 hour exposure): 8%
- reduction of the incidence of Cg mold ([2]; Example 8, avocados, vapor of 3 mL, 48 hour exposure): 25%
- reduction of the incidence of Cg mold ([2]; Example 8, avocados, vapor of 3 mL, 72 hour exposure): 57%
